{"source": "patent US8703705B2", "about": "“Modified factor VIII peptides” (Apitope International NV, priority 2009, dated 2014)", "key": {"[1]": {"tested_on": "FVIII-DR2+ T cell hybridoma clones", "test": "FVIII peptide specificity of T cell hybridomas generated from FVIII-/- HLA-DR2+ mice (IL-2 ELISA)", "assay_type": "cell-based, mouse", "details": "of 19 hybridomas specific for factor VIII; factor VIII deficient HLA-DR2 mice", "text": "Factor VIII deficient mice expressing HLA-DR2 were immunised with factor VIII in adjuvant. Spleen cells from the immunised mice were restimulated in vitro with factor VIII and the resulting lymphoblasts were fused with BW5147, as described above. T-cell hybridomas were screened for their response to the 12 predicted peptides. Yet again, the majority of hybridomas responded to peptides DNIMV (SEQ ID NO: 11) and PRCLT (SEQ ID NO: 9). Of 19 hybridomas specific for factor VIII, 10 responded to DNIMV (SEQ ID NO: 11), 6 to PRCLT (SEQ ID NO: 9), 1 to PPIIA (SEQ ID NO: 4), 1 to SLYIS (SEQ ID NO: 3) and 1 to DTLLI (SEQ ID NO: 8).\nThe same method was followed as for (ii), except the mice were FVIII-deficient and HLA-DR2+."}, "[2]": {"tested_on": "FVIII+DR2+ T cell hybridoma clones", "test": "FVIII peptide specificity of T cell hybridomas generated from DR2+ mice (IL-2 ELISA)", "assay_type": "cell-based, mouse", "details": "for number of hybridomas responding to peptide: of the 27 hybridomas screened, 20 μg/ml peptide, IL-2", "text": "HLA-DR2 mice were first immunised with factor VIII in adjuvant. Spleen cells from immune mice were restimulated in vitro with factor VIII and the resulting lymphoblasts were fused with the BW5147 thymoma using polyethylene glycol.\nT-cell hybridomas were selected in HAT medium and the hybridomas cloned and tested for their response to factor VIII. The hybridomas were then screened for their response to the 12 predicted peptides.\nHLA-DR2+ murine MHC class II null mice were immunised as above. On day 10 draining lymph nodes were removed and lymphocytes cultured at 2.5×10^6 cells/ml, 1 ml/well in 24 well plates in the presence of 20 μg/ml rhFVIII for 3 days. Following this stimulation, lymphocytes were recovered, washed and fused with TCRα^−β^− BW fusion partner cells at a ratio of 4 BW cells to 1 lymphocyte, using polyethylene glycol as described by Nelson et al (1980) PNAS 77(5):2866. Fused cells were carefully washed and then plated out in flat bottomed 96 well plates for 2 days before the addition of HAT medium to select for T cell hybridomas. Cells were monitored for growth and approximately 10 days after fusions were performed, individual clones were selected and transferred to 24 well plates in HAT medium. Clones were maintained in HAT medium for at least 2 weeks before being weaned into HT medium and then complete medium. Clones were tested for antigenic specificity by culturing 100 μl of hybridoma cells with 5×10^4 Mgar cells in the presence and absence of 20 μg/ml rhFVIII overnight. Supernatants were then collected and assessed for IL-2 production by ELISA, with clones producing IL-2 in response to rhFVIII being considered positive for FVIII-specificity. To investigate the repertoire of predicted FVIII peptides FVIII-specific clones were again tested for IL-2 production, following overnight incubation with 20 μg/ml of each of the 12 peptides."}, "[3]": {"tested_on": "LNC from FVIII-DR2+ mice", "test": "Recall responses of lymph node cells from FVIII-DR2+ mice primed with rhFVIII/CFA", "assay_type": "cell-based, mouse", "details": "FVIII-DR2+ animals immunised with factor VIII in adjuvant; FIG. 3", "text": "HLA-DR2 transgenic mice were crossed with factor VIII deficient mice to create a model of haemophilia expressing the human HLA class II MHC molecule.\nThese FVIII-DR2+ animals were immunised with factor VIII in adjuvant. Draining lymph nodes were isolated and tested for their response to the peptide panel.\nThe same method was followed as for (i), except the mice were FVIII-deficient, HLA-DR2+ and murine MHC class II null."}, "[4]": {"tested_on": "FVIII-/- clones with fresh or fixed Mgar cells", "test": "Apitope test: presentation by fresh or paraformaldehyde-fixed Mgar cells to hybridoma clones, IL-2 by ELISA", "assay_type": "cell-based, mouse", "details": "Mgar cells fresh or fixed with 1% paraformaldehyde, 20 μg/ml, FIG. 5", "method": "In order to be an apitope, a peptide must be capable of binding to an MHC class I or II molecule without further antigen processing (i.e. trimming) and be presented to a T cell. In the present case, the capacity of peptides to be presented by fixed APC was investigated.\nMgar cells were either fresh or fixed with 1% paraformaldehyde. Clones were tested for antigenic specificity by culturing 100 μl of hybridoma cells with 5×10^4 Mgar cells in the presence and absence of 20 μg/ml rhFVIII or peptide epitopes overnight. Supernatants were then collected and assessed for IL-2 production by ELISA."}, "[5]": {"tested_on": "HLA-DR2 transgenic mice", "test": "Tolerisation of FVIII-specific responses in DR2+ mice by peptide pre-treatment before priming with rhFVIII/CFA", "assay_type": "in vivo, mouse", "details": "3 x 100 μg i.p. in PBS prior to priming with rhFVIII/CFA; FIG. 6", "method": "HLA-DR2 transgenic mice were treated with either of the two soluble peptides, or PBS as a control, prior to immunisation with factor VIII in adjuvant. Draining lymph nodes were isolated and the cells restimulated in vitro with factor VIII protein in order to assess the immune status of the mice.\nHLA-DR2+ murine MHC class II null mice were treated 3 times with 100 μg of DNIMV (SEQ ID NO: 11), PRCLT (SEQ ID NO: 9) or PPIIA (SEQ ID NO: 4) dissolved in PBS, or the equivalent volume of PBS alone. Peptides were administered intraperitoneally, with 3-4 days between each dose. Following the final administration, mice were primed with rhFVIII emulsified in complete Freunds adjuvant as for (i). 10 days later, draining lymph nodes were recovered and lymphocytes subsequently cultured in vitro with rhFVIII, or each of the tolerising peptides as well as control antigens, for 72 hours before the addition of tritiated thymidine as for (i). (vi) Tolerisation of FVIII-Specific Responses in DR2+Mice by Pre-Treatment with a Combination Immunodominant FVIII Peptides"}, "[6]": {"test": "Solubility of peptide", "assay_type": "physicochemical"}}, "note": "No end group written: not given here.", "data": [{"sequence": "SLYISQFIIMYSLDG (listed as Homo sapiens) [FVIII 15mer peptide, first AA 2114]", "values": [{"measurement": "number of hybridomas responding to peptide", "setting": "[1]", "result": 1}]}, {"sequence": "PRCLTRYYSSFVNME (listed as Homo sapiens) [FVIII 15mer peptide, first AA 545]", "values": [{"measurement": "number of hybridomas responding to peptide", "setting": "[2]", "result": 3}, {"measurement": "response of draining lymph node cells to peptide", "setting": "[3]", "result": "responded well"}, {"measurement": "number of hybridomas responding to peptide", "setting": "[1]", "result": 6}, {"measurement": "presentation by live and fixed APC (function as apitope)", "setting": "[4]", "result": "presented by both live and fixed mgar cells"}, {"measurement": "suppression of the immune response to factor VIII (LNC recall to FVIII)", "setting": "[5]", "result": "substantial suppression of the immune response to factor VIII"}]}, {"sequence": "GTLMVFFGNVDSSGI (listed as Homo sapiens) [FVIII 15mer peptide, first AA 2140]", "values": [{"measurement": "response of draining lymph node cells to peptide", "setting": "[3]", "result": "weak response"}]}, {"sequence": "DTLLIIFKNQASRPY (listed as Homo sapiens) [FVIII 15mer peptide, first AA 478]", "values": [{"measurement": "number of hybridomas responding to peptide", "setting": "[1]", "result": 1}]}, {"sequence": "PPIIARYIRLHPTHY (listed as Homo sapiens) [FVIII 15mer peptide, first AA 2161]", "values": [{"measurement": "character of hybridoma response to peptide", "setting": "[2]; 27 hybridomas screened", "result": "weaker and less specific"}, {"measurement": "number of hybridomas responding to peptide", "setting": "[2]", "result": 3}, {"measurement": "number of hybridomas responding to peptide", "setting": "[1]", "result": 1}]}, {"sequence": "RYLRIHPQSWVHQIA (listed as Homo sapiens) [FVIII 15mer peptide, first AA 2322]", "values": [{"measurement": "response of draining lymph node cells to peptide", "setting": "[3]", "result": "significant response"}]}, {"sequence": "EDNIMVTFRNQASR [EDNIMV, EDNIMVTFRNQASR]", "values": [{"measurement": "solubility", "setting": "[6]", "result": "sufficiently soluble to allow intranasal peptide delivery"}, {"measurement": "solubility relative to parent peptide", "setting": "[6]; compared with DNIMV", "result": "more soluble than DNIMV"}]}, {"sequence": "DNIMVTFRNQASRPY [DNIMV, DNIMVTFRNQASRPY]", "values": [{"measurement": "solubility", "setting": "[6]", "result": "partly, but not completely soluble"}]}]}
